In patent publication US10201586B2 (dated 2019):
Where a SMILES comes first, the peptide text is derived from it.

Target: T1, TFPI (Homo sapiens, UniProt P10646)
Assay: IC50 [nM]
Target sequence in this assay (P10646 29-304 limits assumed): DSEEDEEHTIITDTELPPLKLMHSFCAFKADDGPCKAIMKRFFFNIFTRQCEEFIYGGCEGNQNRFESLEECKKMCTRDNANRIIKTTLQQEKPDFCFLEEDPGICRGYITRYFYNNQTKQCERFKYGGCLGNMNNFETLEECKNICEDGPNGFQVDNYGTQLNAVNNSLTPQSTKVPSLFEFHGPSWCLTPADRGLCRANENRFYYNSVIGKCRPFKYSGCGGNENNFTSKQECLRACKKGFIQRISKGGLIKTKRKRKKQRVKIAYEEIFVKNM

IC50 [µM]	Compound
16.2	CSCC[C@H](NC(=O)[C@H](CCC(=O)O)NC(=O)[C@H](CCCCN)NC(=O)[C@H](CO)NC(=O)[C@H](CCCNC(=N)N)NC(=O)[C@H](CCCCN)NC(=O)[C@H](CO)NC(=O)[C@@H](NC(=O)[C@H](Cc1c[nH]cn1)NC(=O)[C@H](CC(C)C)NC(=O)[C@H](CCC(N)=O)NC(=O)[C@@H](NC(=O)[C@H](C)NC(=O)[C@H](CC(C)C)NC(=O)[C@@H]1CCCN1C(=O)[C@H](Cc1ccccc1)NC(=O)[C@H](CO)NC(=O)[C@H](C)NC(=O)[C@H](Cc1ccc(O)cc1)NC(=O)CNC(=O)[C@H](CO)NC(=O)[C@H](CO)NC(=O)CN)C(C)C)C(C)C)C(=O)N[C@@H](C)C(=O)N[C@@H](CC(C)C)C(=O)N[C@@H](C)C(=O)N[C@@H](CCCNC(=N)N)C(=O)N[C@@H](CC(C)C)C(=O)N[C@@H](Cc1ccc(O)cc1)C(=O)N[C@@H](Cc1ccc(O)cc1)C(=O)N[C@@H](CCCCN)C(=O)N[C@H](C(=O)N[C@@H](CO)C(=O)O)[C@@H](C)O [JBT0788] (H-GSSGYASFPLAVQLHVSKRSKEMALARLYYKTS-OH)
1.91	CSCC[C@H](NC(=O)[C@H](CCC(=O)O)NC(=O)[C@H](CCCCN)NC(=O)[C@H](C)NC(=O)[C@H](CCCNC(=N)N)NC(=O)[C@H](CCCCN)NC(=O)[C@H](CO)NC(=O)[C@@H](NC(=O)[C@H](Cc1c[nH]cn1)NC(=O)[C@H](CC(C)C)NC(=O)[C@H](CCC(N)=O)NC(=O)[C@@H](NC(=O)[C@H](C)NC(=O)[C@H](CC(C)C)NC(=O)[C@@H]1CCCN1C(=O)[C@H](Cc1ccccc1)NC(=O)[C@H](CO)NC(=O)[C@H](C)NC(=O)[C@H](Cc1ccc(O)cc1)NC(=O)CNC(=O)[C@H](CO)NC(C)=O)C(C)C)C(C)C)C(=O)N[C@@H](C)C(=O)N[C@@H](CC(C)C)C(=O)N[C@@H](C)C(=O)N[C@@H](CCCNC(=N)N)C(=O)N[C@@H](CC(C)C)C(=O)N[C@@H](Cc1ccc(O)cc1)C(=O)N[C@@H](Cc1ccc(O)cc1)C(=O)N[C@@H](CCCCN)C(=O)N[C@H](C(=O)N[C@@H](CO)C(N)=O)[C@@H](C)O [JBT0677 | 2009] (Ac-SGYASFPLAVQLHVSKRAKEMALARLYYKTS-NH2)
13.5	CSCC[C@H](NC(=O)[C@H](CCC(=O)O)NC(=O)[C@H](CCCCN)NC(=O)[C@H](CO)NC(=O)[C@H](CCCNC(=N)N)NC(=O)[C@H](CCCCN)NC(=O)[C@H](CO)NC(=O)[C@@H](NC(=O)[C@H](Cc1c[nH]cn1)NC(=O)[C@H](CC(C)C)NC(=O)[C@H](CCC(N)=O)NC(=O)[C@@H](NC(=O)[C@H](C)NC(=O)[C@H](CC(C)C)NC(=O)[C@@H]1CCCN1C(=O)[C@H](Cc1ccccc1)NC(=O)[C@H](CO)NC(=O)[C@H](C)NC(=O)[C@H](Cc1ccc(O)cc1)NC(=O)CNC(=O)[C@H](CO)NC(C)=O)C(C)C)C(C)C)C(=O)N[C@@H](C)C(=O)N[C@@H](CC(C)C)C(=O)N[C@@H](C)C(=O)N[C@@H](CCCNC(=N)N)C(=O)N[C@@H](CC(C)C)C(=O)N[C@@H](C)C(=O)N[C@@H](Cc1ccc(O)cc1)C(=O)N[C@@H](CCCCN)C(=O)N[C@H](C(=O)N[C@@H](CO)C(N)=O)[C@@H](C)O [JBT0686 | 2140] (Ac-SGYASFPLAVQLHVSKRSKEMALARLAYKTS-NH2)
9.13	CSCC[C@H](NC(=O)[C@H](CCC(=O)O)NC(=O)[C@H](CCCCN)NC(=O)[C@H](CO)NC(=O)[C@H](CCCNC(=N)N)NC(=O)[C@H](CCCCN)NC(=O)[C@H](CO)NC(=O)[C@@H](NC(=O)[C@H](Cc1c[nH]cn1)NC(=O)[C@H](CC(C)C)NC(=O)[C@H](CCC(N)=O)NC(=O)[C@@H](NC(=O)[C@H](C)NC(=O)[C@H](CC(C)C)NC(=O)[C@@H]1CCCN1C(=O)[C@H](Cc1ccccc1)NC(=O)[C@H](CO)NC(=O)[C@H](C)NC(=O)[C@H](Cc1ccc(O)cc1)NC(=O)CNC(=O)[C@H](CO)NC(C)=O)C(C)C)C(C)C)C(=O)N[C@@H](C)C(=O)N[C@@H](CC(C)C)C(=O)N[C@@H](C)C(=O)N[C@@H](CCCNC(=N)N)C(=O)N[C@@H](C)C(=O)N[C@@H](Cc1ccc(O)cc1)C(=O)N[C@@H](Cc1ccc(O)cc1)C(=O)N[C@@H](CCCCN)C(=O)N[C@H](C(=O)N[C@@H](CO)C(N)=O)[C@@H](C)O [JBT0685 | 2021] (Ac-SGYASFPLAVQLHVSKRSKEMALARAYYKTS-NH2)

More lines, now with the values behind:

Compound	IC50 [µM]
CSCC[C@H](NC(=O)[C@H](CCC(=O)O)NC(=O)[C@H](CCCCN)NC(=O)[C@H](CO)NC(=O)[C@H](CCCNC(=N)N)NC(=O)[C@H](CCCCN)NC(=O)[C@H](C)NC(=O)[C@@H](NC(=O)[C@H](Cc1c[nH]cn1)NC(=O)[C@H](CC(C)C)NC(=O)[C@H](CCC(N)=O)NC(=O)[C@@H](NC(=O)[C@H](C)NC(=O)[C@H](CC(C)C)NC(=O)[C@@H]1CCCN1C(=O)[C@H](Cc1ccccc1)NC(=O)[C@H](CO)NC(=O)[C@H](C)NC(=O)[C@H](Cc1ccc(O)cc1)NC(=O)CNC(=O)[C@H](CO)NC(C)=O)C(C)C)C(C)C)C(=O)N[C@@H](C)C(=O)N[C@@H](CC(C)C)C(=O)N[C@@H](C)C(=O)N[C@@H](CCCNC(=N)N)C(=O)N[C@@H](CC(C)C)C(=O)N[C@@H](Cc1ccc(O)cc1)C(=O)N[C@@H](Cc1ccc(O)cc1)C(=O)N[C@@H](CCCCN)C(=O)N[C@H](C(=O)N[C@@H](CO)C(N)=O)[C@@H](C)O [JBT0674 | 2008] (Ac-SGYASFPLAVQLHVAKRSKEMALARLYYKTS-NH2)	1.17
CSCC[C@H](NC(=O)[C@H](CCC(=O)O)NC(=O)[C@H](CCCCN)NC(=O)[C@H](CO)NC(=O)[C@H](CCCNC(=N)N)NC(=O)[C@H](CCCCN)NC(=O)[C@H](CO)NC(=O)[C@@H](NC(=O)[C@H](Cc1c[nH]cn1)NC(=O)[C@H](C)NC(=O)[C@H](CCC(N)=O)NC(=O)[C@@H](NC(=O)[C@H](C)NC(=O)[C@H](CC(C)C)NC(=O)[C@@H]1CCCN1C(=O)[C@H](Cc1ccccc1)NC(=O)[C@H](CO)NC(=O)[C@H](C)NC(=O)[C@H](Cc1ccc(O)cc1)NC(=O)CNC(=O)[C@H](CO)NC(C)=O)C(C)C)C(C)C)C(=O)N[C@@H](C)C(=O)N[C@@H](CC(C)C)C(=O)N[C@@H](C)C(=O)N[C@@H](CCCNC(=N)N)C(=O)N[C@@H](CC(C)C)C(=O)N[C@@H](Cc1ccc(O)cc1)C(=O)N[C@@H](Cc1ccc(O)cc1)C(=O)N[C@@H](CCCCN)C(=O)N[C@H](C(=O)N[C@@H](CO)C(N)=O)[C@@H](C)O [JBT0671 | 2019] (Ac-SGYASFPLAVQAHVSKRSKEMALARLYYKTS-NH2)	5.84
CSCC[C@H](NC(=O)[C@H](CCC(=O)O)NC(=O)[C@H](CCCCN)NC(=O)[C@H](CO)NC(=O)[C@H](CCCNC(=N)N)NC(=O)[C@H](CCCCN)NC(=O)[C@H](CO)NC(=O)[C@@H](NC(=O)[C@H](Cc1c[nH]cn1)NC(=O)[C@H](CC(C)C)NC(=O)[C@H](CCC(N)=O)NC(=O)[C@@H](NC(=O)[C@H](C)NC(=O)[C@H](CC(C)C)NC(=O)[C@@H]1CCCN1C(=O)[C@H](Cc1ccccc1)NC(=O)[C@H](CO)NC(=O)[C@H](C)NC(=O)[C@H](C)NC(=O)CNC(=O)[C@H](CO)NC(C)=O)C(C)C)C(C)C)C(=O)N[C@@H](C)C(=O)N[C@@H](CC(C)C)C(=O)N[C@@H](C)C(=O)N[C@@H](CCCNC(=N)N)C(=O)N[C@@H](CC(C)C)C(=O)N[C@@H](Cc1ccc(O)cc1)C(=O)N[C@@H](Cc1ccc(O)cc1)C(=O)N[C@@H](CCCCN)C(=O)N[C@H](C(=O)N[C@@H](CO)C(N)=O)[C@@H](C)O [JBT0662 | 2131] (Ac-SGAASFPLAVQLHVSKRSKEMALARLYYKTS-NH2)	13.8
CSCC[C@H](NC(=O)[C@H](CCC(=O)O)NC(=O)[C@H](CCCCN)NC(=O)[C@H](CO)NC(=O)[C@H](C)NC(=O)[C@H](CCCCN)NC(=O)[C@H](CO)NC(=O)[C@@H](NC(=O)[C@H](Cc1c[nH]cn1)NC(=O)[C@H](CC(C)C)NC(=O)[C@H](CCC(N)=O)NC(=O)[C@@H](NC(=O)[C@H](C)NC(=O)[C@H](CC(C)C)NC(=O)[C@@H]1CCCN1C(=O)[C@H](Cc1ccccc1)NC(=O)[C@H](CO)NC(=O)[C@H](C)NC(=O)[C@H](Cc1ccc(O)cc1)NC(=O)CNC(=O)[C@H](CO)NC(C)=O)C(C)C)C(C)C)C(=O)N[C@@H](C)C(=O)N[C@@H](CC(C)C)C(=O)N[C@@H](C)C(=O)N[C@@H](CCCNC(=N)N)C(=O)N[C@@H](CC(C)C)C(=O)N[C@@H](Cc1ccc(O)cc1)C(=O)N[C@@H](Cc1ccc(O)cc1)C(=O)N[C@@H](CCCCN)C(=O)N[C@H](C(=O)N[C@@H](CO)C(N)=O)[C@@H](C)O [JBT0676 | 2137] (Ac-SGYASFPLAVQLHVSKASKEMALARLYYKTS-NH2)	37.4
CSCC[C@H](NC(=O)[C@H](CCC(=O)O)NC(=O)[C@H](CCCCN)NC(=O)[C@H](CO)NC(=O)[C@H](CCCNC(=N)N)NC(=O)[C@H](C)NC(=O)[C@H](CO)NC(=O)[C@@H](NC(=O)[C@H](Cc1c[nH]cn1)NC(=O)[C@H](CC(C)C)NC(=O)[C@H](CCC(N)=O)NC(=O)[C@@H](NC(=O)[C@H](C)NC(=O)[C@H](CC(C)C)NC(=O)[C@@H]1CCCN1C(=O)[C@H](Cc1ccccc1)NC(=O)[C@H](CO)NC(=O)[C@H](C)NC(=O)[C@H](Cc1ccc(O)cc1)NC(=O)CNC(=O)[C@H](CO)NC(C)=O)C(C)C)C(C)C)C(=O)N[C@@H](C)C(=O)N[C@@H](CC(C)C)C(=O)N[C@@H](C)C(=O)N[C@@H](CCCNC(=N)N)C(=O)N[C@@H](CC(C)C)C(=O)N[C@@H](Cc1ccc(O)cc1)C(=O)N[C@@H](Cc1ccc(O)cc1)C(=O)N[C@@H](CCCCN)C(=O)N[C@H](C(=O)N[C@@H](CO)C(N)=O)[C@@H](C)O [JBT0675 | 2136] (Ac-SGYASFPLAVQLHVSARSKEMALARLYYKTS-NH2)	18.3
CSCC[C@H](NC(=O)[C@H](CCC(=O)O)NC(=O)[C@H](CCCCN)NC(=O)[C@H](CO)NC(=O)[C@H](CCCNC(=N)N)NC(=O)[C@H](CCCCN)NC(=O)[C@H](CO)NC(=O)[C@@H](NC(=O)[C@H](Cc1c[nH]cn1)NC(=O)[C@H](CC(C)C)NC(=O)[C@H](C)NC(=O)[C@@H](NC(=O)[C@H](C)NC(=O)[C@H](CC(C)C)NC(=O)[C@@H]1CCCN1C(=O)[C@H](Cc1ccccc1)NC(=O)[C@H](CO)NC(=O)[C@H](C)NC(=O)[C@H](Cc1ccc(O)cc1)NC(=O)CNC(=O)[C@H](CO)NC(C)=O)C(C)C)C(C)C)C(=O)N[C@@H](C)C(=O)N[C@@H](CC(C)C)C(=O)N[C@@H](C)C(=O)N[C@@H](CCCNC(=N)N)C(=O)N[C@@H](CC(C)C)C(=O)N[C@@H](Cc1ccc(O)cc1)C(=O)N[C@@H](Cc1ccc(O)cc1)C(=O)N[C@@H](CCCCN)C(=O)N[C@H](C(=O)N[C@@H](CO)C(N)=O)[C@@H](C)O [JBT0670 | 2007] (Ac-SGYASFPLAVALHVSKRSKEMALARLYYKTS-NH2)	2.51

Target: T1, TFPI
Assay: % Inhibition @ 2.5µM

% Inhibition @ […] [%]	Compound
4	Ac-SGYASFPLAVQLHVSKRSKEMALARAYYKTS-NH2 (SEQ ID NO: 2021) [JBT0685]

Target: T1, TFPI
Assay: Extrinsic Tenase Inhibition assay | % Inhibition @ 2.5µM

Extrinsic Tenase Inhibition assay | % Inhibition @ […] [%]	Compound
1	Ac-SGYASFPLAVQLHVSKRSKEMALARAYYKTS-NH2 (SEQ ID NO: 2021) [JBT0685]
